{
  "source": "paper PMC9268243",
  "about": "“Metabolic Behaviors of Aconitum Alkaloids in Different Concentrations of Aconiti Lateralis Radix Praeparata and Effects of Aconitine in Healthy Human and Long QT Syndrome Cardiomyocytes” (Molecules, 2022)",
  "key": {"rats": {"test_system": "rats", "settings": "cited from earlier work"}, "normal hiPSC-CMs": {"test_system": "normal hiPSC-CMs", "assay": "Whole-cell current-clamp action potential recording, normal hiPSC-CMs", "type": "cell-based, human", "settings": "normal hiPSC-CMs, 0.05, 0.5 and 5 μM, 1 Hz stimulation", "source_text": "(§1) Standard patch-clamp techniques were used to record action potentials, and L-type calcium currents. Composition of intracellular fluid and extracellular fluid were shown in Table 7 and Table 8, respectively. The signal was amplified using an HEKA EPC-10 patch-clamp amplifier (HEKA, Electronics, Ludwigshafen, Germany) and low-pass filtered at 5 kHz. Patch pipettes were fabricated from glass capillaries using a Sutter P-97 microelectrode puller (Novato, CA, USA) and the tips were heat polished with a microforge (NARISHIGE MF-900) to gain a resistance of 2–5 MΩ. Data acquisition was achieved using HEKA Patchmaster (V2x73.2). Data analysis and fit were performed using Clamfit and Graphpad Prism 6.0. The experiment was conducted at 37 °C. One cell can test one or more drugs, or multiple concentrations of the same drug but needs to be rinsed with extracellular fluid between each test. Nifedipine (Sigma) was used as a positive control to ensure cell quality. External solution containing 0.1% DMSO was applied as vehicle to establish the baseline. Recording was done at a temperature-controlled room of 35–37 degrees Celsius.\nIsoproterenol, nifedipine, and AC were purchased from Sigma-Aldrich, which were resolved in DMSO (Sigma-Aldrich, D2650). Drug compounds final concentration were AC (0.05, 0.5,5 μM), nifedipine (1 μM), isoproterenol (3 μM), respectively. […]"}, "myocardial cells": {"test_system": "myocardial cells", "design": "method as in our previous work", "settings": "low doses 5–20 nmol/L, ref our previous work; cited from earlier work"}, "CYP3A4": {"test_system": "CYP3A4", "settings": "in vivo; cited from earlier work"}, "[1]": {"target": "T1, L-type calcium current (ICa,L) in normal hiPSC-CMs (Homo sapiens, UniProt Q13936)", "T1 construct": "endogenous in cells; host or cells: normal hiPSC-derived cardiomyocytes (hiPSC-CMs)", "T1 sequence (Q13936 whole entry)": "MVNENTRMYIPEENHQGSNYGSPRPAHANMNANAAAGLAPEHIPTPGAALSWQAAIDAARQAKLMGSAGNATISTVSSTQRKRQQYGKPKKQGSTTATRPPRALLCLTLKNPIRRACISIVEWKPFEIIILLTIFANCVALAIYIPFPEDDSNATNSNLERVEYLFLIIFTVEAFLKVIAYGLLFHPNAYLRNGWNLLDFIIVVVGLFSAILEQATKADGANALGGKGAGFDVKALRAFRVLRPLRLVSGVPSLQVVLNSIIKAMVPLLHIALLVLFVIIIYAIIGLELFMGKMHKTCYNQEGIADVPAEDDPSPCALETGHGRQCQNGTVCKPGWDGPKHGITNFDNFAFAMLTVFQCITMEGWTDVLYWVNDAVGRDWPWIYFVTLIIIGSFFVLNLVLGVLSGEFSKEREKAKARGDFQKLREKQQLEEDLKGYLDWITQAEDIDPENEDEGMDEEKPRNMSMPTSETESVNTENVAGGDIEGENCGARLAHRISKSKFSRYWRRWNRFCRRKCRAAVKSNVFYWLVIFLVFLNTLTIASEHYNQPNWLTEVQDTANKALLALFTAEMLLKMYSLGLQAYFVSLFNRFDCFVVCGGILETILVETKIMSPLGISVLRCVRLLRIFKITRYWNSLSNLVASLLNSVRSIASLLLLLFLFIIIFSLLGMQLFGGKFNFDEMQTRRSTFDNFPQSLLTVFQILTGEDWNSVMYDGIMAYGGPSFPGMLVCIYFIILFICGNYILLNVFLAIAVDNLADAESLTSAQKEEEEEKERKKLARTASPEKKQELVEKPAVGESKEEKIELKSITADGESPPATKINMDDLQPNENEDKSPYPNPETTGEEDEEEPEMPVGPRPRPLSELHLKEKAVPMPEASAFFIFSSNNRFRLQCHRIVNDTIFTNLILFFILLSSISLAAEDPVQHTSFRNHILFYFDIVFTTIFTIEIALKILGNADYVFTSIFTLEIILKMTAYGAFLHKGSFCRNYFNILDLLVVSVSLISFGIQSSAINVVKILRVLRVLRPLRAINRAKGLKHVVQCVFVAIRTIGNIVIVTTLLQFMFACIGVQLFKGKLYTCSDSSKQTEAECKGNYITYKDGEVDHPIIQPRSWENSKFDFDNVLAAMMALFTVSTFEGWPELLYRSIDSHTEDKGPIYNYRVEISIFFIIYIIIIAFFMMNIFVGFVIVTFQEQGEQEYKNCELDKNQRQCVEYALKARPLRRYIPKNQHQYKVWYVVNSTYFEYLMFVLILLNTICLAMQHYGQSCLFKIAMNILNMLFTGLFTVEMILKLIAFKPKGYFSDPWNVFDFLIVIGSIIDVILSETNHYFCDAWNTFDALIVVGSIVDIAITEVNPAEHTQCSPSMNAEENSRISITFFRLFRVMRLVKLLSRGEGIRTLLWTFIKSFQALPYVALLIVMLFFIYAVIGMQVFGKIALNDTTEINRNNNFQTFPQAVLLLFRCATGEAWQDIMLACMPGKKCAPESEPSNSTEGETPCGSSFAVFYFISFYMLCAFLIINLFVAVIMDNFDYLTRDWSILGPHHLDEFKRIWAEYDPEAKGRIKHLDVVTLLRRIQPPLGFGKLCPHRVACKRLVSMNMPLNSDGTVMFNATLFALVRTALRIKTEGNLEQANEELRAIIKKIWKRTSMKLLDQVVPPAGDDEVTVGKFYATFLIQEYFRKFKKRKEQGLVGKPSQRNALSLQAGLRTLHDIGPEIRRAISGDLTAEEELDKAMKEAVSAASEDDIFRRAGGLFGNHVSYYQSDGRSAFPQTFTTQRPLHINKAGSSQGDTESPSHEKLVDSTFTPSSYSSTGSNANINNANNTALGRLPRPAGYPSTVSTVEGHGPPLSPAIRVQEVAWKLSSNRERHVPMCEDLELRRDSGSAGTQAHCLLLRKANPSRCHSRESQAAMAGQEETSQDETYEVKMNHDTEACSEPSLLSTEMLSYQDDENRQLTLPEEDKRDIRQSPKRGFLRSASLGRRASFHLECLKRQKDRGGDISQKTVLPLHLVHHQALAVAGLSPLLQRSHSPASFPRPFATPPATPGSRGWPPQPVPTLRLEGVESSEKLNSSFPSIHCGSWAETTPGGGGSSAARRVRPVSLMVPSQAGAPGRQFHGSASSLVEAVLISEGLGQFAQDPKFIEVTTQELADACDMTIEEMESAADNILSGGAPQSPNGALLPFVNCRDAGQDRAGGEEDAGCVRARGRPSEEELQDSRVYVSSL", "T1 sequence (Q08289 whole entry partner)": "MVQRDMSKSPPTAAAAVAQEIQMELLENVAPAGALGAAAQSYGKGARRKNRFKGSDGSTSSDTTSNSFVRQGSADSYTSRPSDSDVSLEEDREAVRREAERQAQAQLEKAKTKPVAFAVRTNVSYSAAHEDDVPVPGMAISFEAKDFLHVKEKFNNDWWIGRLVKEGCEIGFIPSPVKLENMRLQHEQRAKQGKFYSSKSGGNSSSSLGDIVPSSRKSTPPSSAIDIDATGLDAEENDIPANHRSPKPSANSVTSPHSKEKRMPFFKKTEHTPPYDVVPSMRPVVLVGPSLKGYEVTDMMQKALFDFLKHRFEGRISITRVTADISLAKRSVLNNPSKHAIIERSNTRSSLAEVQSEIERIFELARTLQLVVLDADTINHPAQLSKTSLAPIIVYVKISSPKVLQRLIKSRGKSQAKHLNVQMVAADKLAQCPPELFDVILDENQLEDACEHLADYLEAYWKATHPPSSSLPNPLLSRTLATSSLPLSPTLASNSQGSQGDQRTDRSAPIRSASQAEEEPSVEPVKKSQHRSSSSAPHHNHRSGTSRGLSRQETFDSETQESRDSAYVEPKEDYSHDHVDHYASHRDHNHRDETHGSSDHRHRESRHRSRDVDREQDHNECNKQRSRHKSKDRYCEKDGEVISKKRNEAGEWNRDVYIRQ", "T1 sequence (P54289 25-956 partner limits assumed)": "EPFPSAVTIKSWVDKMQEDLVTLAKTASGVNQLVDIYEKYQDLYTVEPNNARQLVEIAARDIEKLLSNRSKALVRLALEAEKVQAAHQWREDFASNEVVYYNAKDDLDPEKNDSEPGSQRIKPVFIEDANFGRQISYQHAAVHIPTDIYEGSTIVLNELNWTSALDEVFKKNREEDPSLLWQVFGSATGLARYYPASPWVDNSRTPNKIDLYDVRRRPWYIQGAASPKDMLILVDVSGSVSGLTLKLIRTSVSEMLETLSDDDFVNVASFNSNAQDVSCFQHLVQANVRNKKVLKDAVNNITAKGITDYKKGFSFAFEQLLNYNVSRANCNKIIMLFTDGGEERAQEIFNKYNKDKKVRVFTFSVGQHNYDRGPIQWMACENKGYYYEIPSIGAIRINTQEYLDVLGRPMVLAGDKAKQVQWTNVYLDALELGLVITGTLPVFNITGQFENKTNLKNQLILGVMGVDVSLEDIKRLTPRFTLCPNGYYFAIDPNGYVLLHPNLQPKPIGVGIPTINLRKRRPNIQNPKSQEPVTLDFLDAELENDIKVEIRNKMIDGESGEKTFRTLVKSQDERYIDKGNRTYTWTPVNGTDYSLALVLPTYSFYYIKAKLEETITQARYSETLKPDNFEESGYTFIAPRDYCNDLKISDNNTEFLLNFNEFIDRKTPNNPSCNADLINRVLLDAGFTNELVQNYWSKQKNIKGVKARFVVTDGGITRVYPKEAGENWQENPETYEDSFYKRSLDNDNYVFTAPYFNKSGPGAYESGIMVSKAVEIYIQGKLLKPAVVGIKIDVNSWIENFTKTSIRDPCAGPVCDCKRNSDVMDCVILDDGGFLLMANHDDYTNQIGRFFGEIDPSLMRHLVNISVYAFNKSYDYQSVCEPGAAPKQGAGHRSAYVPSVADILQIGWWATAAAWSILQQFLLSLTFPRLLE", "T1 sequence (P54289 957-1103 partner limits assumed)": "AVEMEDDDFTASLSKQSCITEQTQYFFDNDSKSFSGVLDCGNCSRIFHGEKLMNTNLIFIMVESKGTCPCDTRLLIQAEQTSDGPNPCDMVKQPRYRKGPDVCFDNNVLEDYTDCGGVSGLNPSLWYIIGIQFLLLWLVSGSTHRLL", "assay": "Patch-clamp L-type calcium current, normal hiPSC-CMs", "type": "cell-based", "source_text": "as §1\n(§2) Isoproterenol, nifedipine, and AC were purchased from Sigma-Aldrich, which were resolved in DMSO (Sigma-Aldrich, D2650). Drug compounds final concentration were AC (0.05, 0.5,5 μM), nifedipine (1 μM), isoproterenol (3 μM), respectively. Dilutions were prepared within 60 min of treatment. All the compound solutions were subjected to regular 10 min ultrasound and oscillations to ensure that compounds were completely dissolved. Equal amounts of DMSO (0.1%) were used as the vehicle controls."}, "LQT syndrome hiPSC-CMs": {"test_system": "LQT syndrome hiPSC-CMs", "assay": "Impedance beating recordings (cell index, beat rate, amplitude), LQT syndrome hiPSC-CMs", "type": "cell-based, human", "method": "HiPSCs derived from healthy controls (Cat: NC20010002; Lot.HJ210577NC22), or patients (Cat. NC20300002; Lot. CP210578NC04) diagnosed with LQT syndrome was maintained in HELP4004 (HELP, Nanjing, China) medium on Matrigel-coated (BD Bio science, San Jose, CA, USA) plates at 37 °C; with 5% CO2 (v/v).\nThe cardiomyocytes were seeded on Nanion CardioExcyte 96 Sensor Plates (NSP-96, Nanion Technologies, Munich, Germany) after 0.1% gelatin coating for 1 h. The initial volume was 200 μL per well and contained approximately […]. After seeding, the NSP-96 and CardioExcyte 96 were returned to the incubator. All cells were replaced with fresh medium 200 μL per well every 48 h and tested after 168 h. Cellular index, beat rate, base impedance and beat amplitude were monitored in this experiment.\nas §2"}, "[2]": {"target": "T2, L-type calcium current (ICa,L) in LQTS hiPSC-CMs (Homo sapiens, UniProt Q13936)", "T2 construct": "endogenous in cells; host or cells: LQTS patient-derived hiPSC cardiomyocytes", "T2 sequence (Q13936 whole entry)": "as the sequence (Q13936 whole entry) above", "T2 sequence (Q08289 whole entry partner)": "as the sequence (Q08289 whole entry partner) above", "T2 sequence (P54289 25-956 partner limits assumed)": "as the sequence (P54289 25-956 partner limits assumed) above", "T2 sequence (P54289 957-1103 partner limits assumed)": "as the sequence (P54289 957-1103 partner limits assumed) above", "assay": "Patch-clamp L-type calcium current, LQTS hiPSC-CMs", "type": "cell-based", "source_text": "as §1, §2"}, "[3]": {"settings": "LQT hiPSC-CMs, 0.05 μM, versus control group"}},
  "note": "Where two headings read alike, the source gives them in different places.",
  "data": [
    {"compound": "CCN1C[C@]2(COC)[C@H](O)C[C@H](OC)[C@@]34[C@@H]5C[C@@]6(O)[C@H](OC(=O)c7ccccc7)[C@@H]5[C@@](OC(C)=O)([C@@H]([C@H](OC)[C@H]23)[C@@H]14)[C@@H](O)[C@@H]6OC", "note": "[AC, aconitine]", "values": [
      {"measurement": "toxic cardiovascular effects", "setting": "rats; oral 0.4 mg/kg", "value": "arrhythmia, lower heart rate, and blood pressure, were observed"},
      {"measurement": "toxic cardiovascular effects", "setting": "rats; oral low-dose 0.1 mg/kg", "value": "not found"},
      {"measurement": "APD50", "setting": "normal hiPSC-CMs", "value": "concentration-dependently shortened"},
      {"measurement": "mitochondrial energy metabolism", "setting": "myocardial cells", "value": "could improve mitochondrial energy metabolism"},
      {"measurement": "main CYP 450 subtype for alkaloid metabolism", "setting": "CYP3A4", "value": "CYP3A4"},
      {"measurement": "IC50", "setting": "[1]; normal (control) hiPSC-CMs, tested 0.05–5 μM, no concentration dependence, read-out: IC50, inhibition of L-type calcium current", "value": "> 5", "unit": "µM"},
      {"measurement": "peak value of L-type calcium current", "setting": "[1]; normal group, 0.05–5 μM", "value": "significantly decreased"},
      {"measurement": "IC50", "setting": "[1]; normal hiPSC-CMs, estimated beyond tested range 0.05–5 μM, read-out: IC50 (eIC50) on ICa,L", "value": 27.5, "unit": "µM"},
      {"measurement": "contraction force", "setting": "LQT syndrome hiPSC-CMs; [3]", "value": "lower contraction force"},
      {"measurement": "contraction frequency", "setting": "LQT syndrome hiPSC-CMs; [3]", "value": "higher contraction frequency"},
      {"measurement": "cell frequency", "setting": "LQT syndrome hiPSC-CMs; LQT hiPSC-CMs, 0.5 μM", "value": "significantly increased"},
      {"measurement": "contractility", "setting": "LQT syndrome hiPSC-CMs; LQT hiPSC-CMs, 0.5 μM", "value": "significantly increased"},
      {"measurement": "cell contractility", "setting": "LQT syndrome hiPSC-CMs; LQT hiPSC-CMs, 5 μM, very weak within 30 h after treatment", "value": "decreased to zero"},
      {"measurement": "myocardial cell death", "setting": "LQT syndrome hiPSC-CMs; LQT hiPSC-CMs, three concentrations (0.05, 0.5, 5 μM), 48 h observation period", "value": "None of the three concentrations caused significant myocardial cell death"},
      {"measurement": "cell index", "setting": "LQT syndrome hiPSC-CMs; LQTS hiPSC-CMs, 5.0 μM, between 5–30 min", "value": "decreased the cell index"},
      {"measurement": "peak value of L-type calcium current", "setting": "[2]; LQT group, 0.05–5 μM", "value": "significantly decreased"},
      {"measurement": "IC50", "setting": "[2]; LQT hiPSC-CMs, tested 0.05–5 μM, no concentration dependence, read-out: IC50, inhibition of L-type calcium current", "value": "> 5", "unit": "µM"},
      {"measurement": "IC50", "setting": "[2]; LQTS hiPSC-CMs, estimated beyond tested range 0.05–5 μM, read-out: IC50 (eIC50) on ICa,L", "value": 27.2, "unit": "µM"}
    ]}
  ]
}
